The source of these data is patent publication US8901138B2, “Sulfoximine substituted quinazolines for pharmaceutical compositions” (Boehringer Ingelheim International GmbH, priority 2012, dated 2014).

The target of one assay is T1, MNK2a (Homo sapiens, UniProt Q9HBH9).
T1 construct: made in house
Put plainly: MNK2a in vitro kinase assay (assay 1), ADP-Glo. It counts as biochemical. As to conditions: preactivated GST-MNK2a, 20 μM ATP, read-out: MNK2 IC50. The protocol:
A. MNK2a In Vitro Kinase Assay (Assay 1)
ASSAY SETUP: The inhibition of kinase activity of MNK2a was assessed using preactivated GST-MNK2a. The white, 384-well OptiPlate F plates were purchased from Perkin Elmer. The ADP-Glo Kinase Assay (including ultra pure ATP) was purchased from Promega (V9103). Activated MNK2a was obtained as described in WO2011/104340. The unlabeled eIF4E peptide (NH2-[…]—CONH2) (SEQ ID NO: 1), differing from Seq. ID No. 5 of WO 2011/104340 by the C-terminal —CONH2 group, was purchased from Thermo Fisher Scientific. All other materials were of highest grade commercially available. Compounds are tested in either serial dilutions or single dose concentrations. The compound stock solutions are 10 mM in 100% DMSO The serial compound dilutions are prepared in 100% DMSO followed by 1:27.3 intermediate dilution in assay buffer. The final DMSO concentration in assay will be <3%. In the 384-well plates 3 μl of test compound from the intermediate dilution is mixed with 4 μl of the activated MNK2 enzyme (final concentration of 10 nM) and 4 μl of the peptide (final concentration of 25 μM)/ultra pure ATP (final concentration of 20 μM), all dissolved in assay buffer. This step is followed by an incubation time of 90 min, then 10 μl of ADP Glo reagent are added, followed by 40 min of incubation. Then 20 μl of kinase detection reagent are admixed. The plates are sealed and after an incubation period of 30 min, the luminescence signal is measured in an Envision reader to determine the amount of produced ADP. All incubation steps are performed at room temperature. The assay buffer consists of 20 mM HEPES, 2 mM DTT, 0.01% BSA, 20 mM MgCl2 and 0.1% Pluronic F-127.
Each assay microtiter plate contains wells with vehicle controls instead of compound (1% DMSO in water) as reference for the high signal (100% CTL, high signal), and wells containing a potent MNK2 inhibitor (final 20 μM, 1% DMSO) as reference for low signal (0% CTL, low signal).
The luminescent signal generated is proportional to the ADP concentration produced and is correlated with activated MNK2 activity. The analysis of the data is performed by the calculation of the percentage of ATP consumption of activated MNK2 in the presence of the test compound compared to the consumption of ATP in the presence of activated MNK2 without compound. (RLU(sample)−RLU(low control))*100/(RLU(high value)−RLU(low control)) [RLU=relative luminescence units]
An inhibitor of the MNK2 enzyme will give values between 100% CTL (no inhibition) and 0% CTL (complete inhibition). Values of more than 100% CTL are normally related to compound/sample specific physico-chemical properties (e.g. solubility, light absorbance, fluorescence).
IC50 values based on dose response curves are calculated with the AssayExplorer software.
(In general: ADP-Glo first removes unused ATP, then detects ADP through luciferase.)

The target in another assay is MNK1a (Homo sapiens, UniProt Q9BUB5). As to the kind of experiment: MNK1 in vitro kinase assay (assay 2), Z'-LYTE. As to conditions: for IC50: pre-activated GST-MNK1a. It counts as biochemical. An excerpt:
B. MNK1 In Vitro Kinase Assay (Assay 2)
MNK1 Data can be obtained from the MNK1 Z′-LYTE® assay. The MNK1 Z′-LYTE® screening protocol and assay conditions are also described on www.invitrogen.com.
The assay is described as follows:
The Z′-LYTE® biochemical assay employs a fluorescence-based, coupled-enzyme format and is based on the differential sensitivity of phosphorylated and non-phosphorylated peptides to proteolytic cleavage. The peptide substrate is labeled with two fluorophores—one at each end—that make up a FRET pair.
In the primary reaction, the kinase transfers the gamma-phosphate of ATP to a single tyrosine, serine or threonine residue in a synthetic FRET-peptide. In the secondary reaction, a site-specific protease recognizes and cleaves non-phosphorylated FRET-peptides. Phosphorylation of FRET-peptides suppresses cleavage by the Development Reagent. Cleavage disrupts FRET between the donor (i.e., coumarin) and acceptor (i.e., fluorescein) fluorophores on the FRET-peptide, whereas uncleaved, phosphorylated FRET-peptides maintain FRET. A ratiometric method, which calculates the ratio (the Emission Ratio) of donor emission to acceptor emission after excitation of the donor fluorophore at 400 nm, is used to quantitate reaction progress, as shown in the equation below. Emission Ratio=Coumarin Emission(445 nm)/Fluorescein Emission(520 nm)
ASSAY SETUP: The inhibition of kinase activity of MNK1a was assessed using pre-activated GST-MNK1a. The 2×MKNK1 (MNK1) mixture is prepared in 50 mM HEPES pH 7.5, 0.01% BRIJ-35, 10 mM MgCl2, 4 mM MnCl2, 1 mM EGTA, 2 mM DTT. The final 10 μL Kinase Reaction consists of 13.5-54 ng MKNK1 (MNK1) and 2 μM Ser/Thr 07 in 50 mM HEPES pH 7.5, 0.01% BRIJ-35, 10 mM MgCl2, 2 mM MnCl2, 1 mM EGTA, 1 mM DTT. After the 1 hour Kinase Reaction incubation, 5 μL of a 1:32768 dilution of Development Reagent A is added.
The Test Compounds are screened in 1% DMSO (final) in the well.
All Peptide/Kinase Mixtures are diluted to a 2× working concentration in the MNK1 Kinase Buffer.
All ATP Solutions are diluted to a 4× working concentration in Kinase Buffer (50 mM HEPES pH 7.5, 0.01% BRIJ-35, 10 mM MgCl2, 1 mM EGTA).
Development Reagent Solution:
The Development Reagent is diluted in Development Buffer
Bar-coded Corning, low volume NBS, 384-well plate (Corning Cat. #3676)
1. 2.5 μL-4× Test Compound
2. 5 μL-2× Peptide/Kinase Mixture
5. 60-minute Kinase Reaction incubation at room temperature
6. 5 μL-Development Reagent Solution
8. 60-minute Development Reaction incubation at room temperature
9. Read on fluorescence plate reader and analyze the data
The following equations are used for each set of data points: […]
Correction for Background Fluorescence: FSample−FITCFl Ctl
Emission Ratio (using values corrected for background fluorescence):Coumarin
Emission (445 nm)/Fluorescein Emission (520 nm)
% Phosphorylation (% Phos): 1−((Emission Ratio×F100%)−C100%)/((C0%−C100%)+[Emission Ratio×(F100%−F0%)])*100 % Inhibition: 1−(% PhosSample/% Phos0% Inhibition Ctl)*100 FI=Fluorescence Intensity C100%=Average Coumarin emission signal of the 100% Phos. Control C0%=Average Coumarin emission signal of the 0% Phos. Control F100%=Average Fluorescein emission signal of the 100% Phos. Control F0%=Average Fluorescein emission signal of the 0% Phos. Control Graphing Software
SelectScreen® Kinase Profiling Service uses XLfit from IDBS. The dose response curve is curve fit to model number 205 (sigmoidal dose-response model).

Chain of MNK1a (Q9BUB5 1-424 isoform Q9BUB5-2): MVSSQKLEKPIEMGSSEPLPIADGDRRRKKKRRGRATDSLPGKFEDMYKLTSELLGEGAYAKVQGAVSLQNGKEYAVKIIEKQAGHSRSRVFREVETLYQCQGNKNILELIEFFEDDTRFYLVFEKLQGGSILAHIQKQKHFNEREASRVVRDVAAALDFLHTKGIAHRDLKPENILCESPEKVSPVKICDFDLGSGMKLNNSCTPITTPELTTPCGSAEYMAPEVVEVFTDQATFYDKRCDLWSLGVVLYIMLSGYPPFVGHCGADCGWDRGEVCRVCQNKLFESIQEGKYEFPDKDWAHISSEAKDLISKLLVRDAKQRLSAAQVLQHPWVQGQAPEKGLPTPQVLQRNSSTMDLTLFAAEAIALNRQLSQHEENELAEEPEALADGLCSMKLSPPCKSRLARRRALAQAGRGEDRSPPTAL
T1 sequence (Q9HBH9 whole entry): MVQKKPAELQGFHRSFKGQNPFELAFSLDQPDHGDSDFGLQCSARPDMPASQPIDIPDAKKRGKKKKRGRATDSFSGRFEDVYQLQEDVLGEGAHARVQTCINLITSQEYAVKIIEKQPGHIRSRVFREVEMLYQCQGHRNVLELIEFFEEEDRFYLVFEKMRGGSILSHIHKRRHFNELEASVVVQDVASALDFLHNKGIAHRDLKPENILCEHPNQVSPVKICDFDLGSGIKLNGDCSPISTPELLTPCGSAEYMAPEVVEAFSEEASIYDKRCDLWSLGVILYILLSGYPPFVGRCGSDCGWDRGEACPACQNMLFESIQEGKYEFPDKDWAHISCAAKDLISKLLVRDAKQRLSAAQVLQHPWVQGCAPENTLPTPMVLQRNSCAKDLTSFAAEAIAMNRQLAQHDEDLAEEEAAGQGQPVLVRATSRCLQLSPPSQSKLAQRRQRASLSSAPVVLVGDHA

As usually defined, the IC50 is the point on the concentration scale where inhibition reaches its midpoint. One may read the inhibition as the percentage by which the read-out fell short of the control. Low readings indicate little suppression, high ones strong suppression. As to `Cc1cc(N=S(C)(C)=O)cc2ncnc(Nc3ccc(F)cc3O[C@@H]3CO[C@@H]4OCC[C@@H]43)c12` (racemic) [Example 2.62], the IC50 at MNK2a was 11 nM. In addition, at 1 µM the inhibition on MNK1a (compound concentration of 1 μM) was 73%. Consider `Cc1cc(N=S2(=O)CCCC2)cc2ncnc(Nc3ccc(F)cc3O[C@@H]3CO[C@@H]4OCC[C@@H]43)c12` (racemic) [Example 2.82], for which, at MNK2a, the IC50 was 5 nM. In addition, the inhibition at 1 µM at MNK1a (compound concentration of 1 μM) came to 88%. In the same order, the values of `COC1CCCC(Oc2cc(F)ccc2Nc2ncnc3cc(N=S(C)(C)=O)cc(C)c23)C1` (racemic) [Example 4.12] are 14 nM and 84%. Taken in the same sequence, the figures for `CCS(C)(=O)=Nc1cc(C)c2c(Nc3ccc(F)cc3OC3CCOC3)ncnc2c1` (single isomer, unassigned) [Example 7.13] were 2 nM and 98%.

Turning to `CCS(C)(=O)=Nc1cc(C)c2c(Nc3ccc(F)cc3OC3CCOC3)ncnc2c1` (single isomer, unassigned) [Example 7.14], the IC50 on MNK2a amounted to 7 nM. Moreover, the “% Inhibition of MNK1” value on MNK1a (compound concentration of 1 μM, 1 µM) was 91%. As to `Cc1cc(N=S(C)(C)=O)cc2ncnc(Nc3ccc(F)cc3O[C@@H]3CO[C@H]4[C@@H]3OC[C@@H]4O)c12` [Example 1.1], the IC50 at MNK2a stood at 1 nM. At MNK1a (compound concentration of 1 μM), this molecule displayed an inhibition at 1 µM of 98%. Regarding `CO[C@@H]1CO[C@H]2[C@@H]1OC[C@H]2Oc1cc(F)ccc1Nc1ncnc2cc(N=S(C)(C)=O)cc(Cl)c12` [Example 1.2], the IC50 on MNK2a is 1 nM; against MNK1a it was 13 nM. For `CS(C)(=O)=Nc1cc(Cl)c2c(Nc3ccc(F)cc3O[C@@H]3CO[C@@H]4CCO[C@@H]43)ncnc2c1` [Example 1.4], the IC50 on MNK2a worked out at 1 nM; at MNK1a, 25 nM. Further, at MNK1a (compound concentration of 1 μM), 1 µM produced 100% inhibition. On to `Cc1cc(N=S(C)(C)=O)cc2ncnc(Nc3cccnc3O[C@@H]3CO[C@H]4[C@@H]3OC[C@H]4O)c12` [Example 1.9], for which the IC50 on MNK2a stood at 6 nM. The inhibition at 1 µM against MNK1a (compound concentration of 1 μM) stood at 90%.

As for `Cc1cc(N=S(C)(C)=O)cc2ncnc(Nc3ccc(Br)cc3OC3CCOCC3)c12` [Example 1.10], the inhibition at 1 µM against MNK1a (compound concentration of 1 μM) was found to be 80%.

As for `Cc1cc(N=S(C)(C)=O)cc2ncnc(Nc3ccccc3OC3CCOCC3)c12` [Example 1.12], the IC50 at MNK2a is 21 nM. Further, on MNK1a (compound concentration of 1 μM), the inhibition at 1 µM was determined as 92%.

On to `CS(C)(=O)=Nc1cc(C2CC2)c2c(Nc3ccc(F)cc3O[C@H]3CCOC3)ncnc2c1` [Example 1.15], for which the IC50 on MNK2a is 3 nM. Besides, testing at 1 µM against MNK1a (compound concentration of 1 μM) gave an inhibition of 95%.

For `CS(C)(=O)=Nc1cc(Cl)c2c(Nc3ccc(F)cc3O[C@H]3CC[C@H](O)CC3)ncnc2c1` [Example 1.17], the figures for the IC50 at MNK2a and against MNK1a were 2 nM and 39 nM, respectively. As for `Cc1cc(N=S(C)(C)=O)cc2ncnc(Nc3ccc(F)cc3O[C@@H]3CO[C@H]4[C@@H]3OC[C@H]4O)c12` [Example 1.18], the IC50 on MNK2a stood at 2 nM. Also, the inhibition at 1 µM on MNK1a (compound concentration of 1 μM) came out at 100%. Taken in the same sequence, the figures for `CS(C)(=O)=Nc1cc(N2CCC2)c2c(Nc3ccc(F)cc3O[C@H]3CCOC3)ncnc2c1` [Example 1.19] were 106 nM and 42%. Regarding `Cc1cc(N=S(C)(C)=O)cc2ncnc(Nc3ccc(F)cc3O[C@H]3CO[C@H]4[C@@H]3OC[C@H]4O)c12` [Example 2.19], on MNK1a (compound concentration of 1 μM), testing at 1 µM gave an inhibition of 47%. As for `Cc1cc(N=S2(=O)CCN(C(=O)OC(C)(C)C)CC2)cc2ncnc(Nc3ccc(F)cc3O[C@H]3CO[C@H]4[C@@H]3OC[C@H]4O)c12` [Example 2.21], 1 µM produced 81% inhibition against MNK1a (compound concentration of 1 μM). On the same count and under the same terms, the figure for `CC(C)(C)OC(=O)N1CC[C@@H](Oc2cc(F)ccc2Nc2ncnc3cc(N=S(C)(C)=O)cc(F)c23)C1` [Example 2.32] is 50%; for `CO[C@H]1CC[C@H](Oc2cc(F)ccc2Nc2ncnc3cc(N=S(C)(C)=O)cc(F)c23)CC1` [Example 2.46] it is 88%; for `Cc1cc(N=S(C)(C)=O)cc2ncnc(Nc3ccc(F)cc3O[C@@H]3CCN(C(=O)OC(C)(C)C)C3)c12` [Example 2.52] it is 60%. On the same count and under the same terms, next, `COCCS(C)(=O)=Nc1cc(C)c2c(Nc3ccc(F)cc3O[C@H]3CCOC3)ncnc2c1` (stereo partly shown) [Example 2.63]: 85%; `Cc1cc(N=S2(=O)CCCC2)cc2ncnc(Nc3ccc(F)cc3O[C@H]3CCOC3)c12` [Example 2.85]: 100%. At MNK1a (compound concentration of 1 μM), `CCS(=O)(CC)=Nc1cc(C)c2c(Nc3ccc(F)cc3O[C@@H]3CO[C@H]4[C@@H]3OC[C@H]4O)ncnc2c1` [Example 2.86] yielded an inhibition at 1 µM of 89%. Still for that read-out and setting: the figure for `Cc1cc(N=S2(=O)CCCC2)cc2ncnc(Nc3ccc(F)cc3O[C@@H]3CCNC3)c12` [Example 3.4] is 92%; for `Cc1cc(N=S(C)(C)=O)cc2ncnc(Nc3ccc(F)cc3OC3CCOC3=O)c12` (stereo not shown) [Example 4.13] it is 75%; for `Cc1cc(N=S(C)(C)=O)cc2ncnc(Nc3cccnc3O[C@@H]3CCCN(CC(C)(C)O)C3)c12` [Example 6.5] it is 91%. Turning to `CC(C)(O)CN1CCC[C@@H](Oc2ncccc2Nc2ncnc3cc(N=S(C)(C)=O)cc(F)c23)C1` [Example 6.19], the inhibition at 1 µM on MNK1a (compound concentration of 1 μM) stood at 70%.

In turn, `COC(=O)N1CCS(=O)(=Nc2cc(C)c3c(Nc4ccc(F)cc4O[C@H]4CC[C@H](OC)CC4)ncnc3c2)CC1` [Example 7.3] had an inhibition at 1 µM at MNK1a (compound concentration of 1 μM) of 72%.
